Results on 29 molecules are retold here after patent US10494376B2, “Tetrahydroisoquinoline derived PRMT5-inhibitors” (CTXT PTY LTD, priority 2014, dated 2019).

The term IC50 denotes the midpoint of a concentration-inhibition curve.

The structures appear in SMILES notation. Structures can show the parent of a compound that is named as a salt.

Full-length PRMT5 enzyme (NCBI Reference sequence NP_006100.2) co-expressed with His6-MEP50, sequence (O14744 whole entry): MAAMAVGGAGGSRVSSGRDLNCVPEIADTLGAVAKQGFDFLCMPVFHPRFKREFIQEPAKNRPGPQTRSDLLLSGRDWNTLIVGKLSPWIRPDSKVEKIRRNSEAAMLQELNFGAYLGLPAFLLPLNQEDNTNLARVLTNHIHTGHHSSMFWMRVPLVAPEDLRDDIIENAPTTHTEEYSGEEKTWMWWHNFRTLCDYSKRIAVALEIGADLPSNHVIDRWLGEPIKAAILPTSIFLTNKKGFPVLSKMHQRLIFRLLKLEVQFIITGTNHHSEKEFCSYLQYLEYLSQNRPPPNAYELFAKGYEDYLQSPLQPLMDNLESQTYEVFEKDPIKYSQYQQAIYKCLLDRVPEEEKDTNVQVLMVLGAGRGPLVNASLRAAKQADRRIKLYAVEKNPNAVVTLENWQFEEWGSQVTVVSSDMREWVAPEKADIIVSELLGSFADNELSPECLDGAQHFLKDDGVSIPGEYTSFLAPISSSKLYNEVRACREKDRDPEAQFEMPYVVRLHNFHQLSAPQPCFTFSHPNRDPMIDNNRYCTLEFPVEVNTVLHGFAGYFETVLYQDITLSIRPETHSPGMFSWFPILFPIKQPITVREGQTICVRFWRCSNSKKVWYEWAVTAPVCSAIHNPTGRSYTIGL
Full-length PRMT5 enzyme (NCBI Reference sequence NP_006100.2) co-expressed with His6-MEP50, sequence (Q9BQA1 whole entry partner): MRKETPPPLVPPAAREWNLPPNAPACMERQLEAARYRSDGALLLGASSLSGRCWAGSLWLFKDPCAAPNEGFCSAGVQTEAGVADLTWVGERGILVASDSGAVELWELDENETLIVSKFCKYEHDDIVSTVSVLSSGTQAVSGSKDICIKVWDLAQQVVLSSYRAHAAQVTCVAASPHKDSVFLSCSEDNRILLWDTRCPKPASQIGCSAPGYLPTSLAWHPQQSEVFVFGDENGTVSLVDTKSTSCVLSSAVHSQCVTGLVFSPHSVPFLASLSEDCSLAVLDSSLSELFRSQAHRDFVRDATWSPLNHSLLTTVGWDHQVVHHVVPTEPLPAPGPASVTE

This assay addresses Full-length PRMT5 enzyme (NCBI Reference sequence NP_006100.2) co-expressed with His6-MEP50 (Homo sapiens (Human), UniProt O14744). In words: Revised PRMT5 Biochemical Assay. The settings on record: 1 μM peptide substrate, 1 μM S-Adenosyl methionine, 4 hours at 37 degree Celsius, Transcreener EPIGEN fluorescence polarisation. The protocol:
Compounds of the invention may be tested for in vitro activity in the following assay: A histone H4 derived peptide is used as substrate (amino acid sequence: […]N H2). Full-length PRMT5 enzyme (NCBI Reference sequence NP_006100.2) was co-expressed with His6-MEP50 in insect cells and purified via Nickel immobilized metal affinity and gel filtration chromatography (“the enzyme”).
The 6 μL reactions are run in Greiner brand black 384-well low volume assay plates. All reactions contained assay buffer (phosphate buffered saline, 0.01% (v/v) Tween-20, 0.01% (w/v) albumin from chicken egg white, 1 mM Dithiothreitol, 1 μM peptide substrate, 1 μM S-Adenosyl methionine, and 15 ng/reaction enzyme, with the enzyme being omitted from negative control reactions. Compounds were added in a volume of 100 nL from dilution series prepared in DMSO, positive and negative control reactions receiving the same volume DMSO without compound. The plates were sealed with adhesive seals and incubated for 4 hours at 37 degree Celsius. Reaction progress was measured using the Transcreener™ EPIGEN methyltransferase assay (BellBrook Labs, Madison, Wis.) as recommended by the manufacturer. To each reaction 2 μL detection mix were added, containing coupling enzymes, fluorescence polarisation tracer, and AMP antibody. Plates were incubated for 90 minutes before being read on a PerkinElmer EnVision™ plate reader in fluorescence polarisation mode. IC50 values were obtained from the raw readings by calculating percent inhibition (%1) for each reaction relative to controls on the same plate (% I=(I−CN)/(CP−CN) where CN/CP are the averages of the negative/positive reactions, respectively), then fitting the %1 data vs. compound concentration [I] to % I=(A+((B−A)/(1+((C/[I])^D)))) where A is the lower asymptote, B is the upper asymptote, C is the IC50 value, and D is the slope.
In general terms: In fluorescence polarisation assays a small probe gives low polarisation when free and higher when bound to something large.
In turn, `O=C(NC[C@@H](O)[C@@H]1Cc2ccccc2CN1)c1ccc(C(=O)N2CC3CC2CO3)cc1` (mixture of isomers) [Example 94, 4-(2-Oxa-5-azabicyclo[2.2.1]heptane-5-carbonyl)-N-((R)-2-hydroxy-2-((S)-1,2,3,4-tetrahydroisoquinolin-3-yl)ethyl)benzamide] yielded an IC50 of 780 nM. That is a sub-micromolar value.

As to `O=C(NC[C@@H](O)[C@@H]1Cc2ccccc2CN1)c1ccccc1Cl` [Example 4, 2-Chloro-N-((R)-2-hydroxy-2-((S)-1,2,3,4-tetrahydroisoquinolin-3-yl)ethyl)benzamide], half-maximal inhibition (IC50) required 8790 nM.

The molecule `O=C(NC[C@@H](O)[C@@H]1Cc2ccccc2CN1)c1ccccc1C(F)(F)F` [Example 5, N-((R)-2-Hydroxy-2-((S)-1,2,3,4-tetrahydroisoquinolin-3-yl)ethyl)-2-(trifluoromethyl)benzamide] yielded an IC50 of 51100 nM.

`O=C(NC[C@@H](O)[C@@H]1Cc2ccccc2CN1)c1ccccc1OC(F)(F)F` [Example 6, N-((R)-2-Hydroxy-2-((S)-1,2,3,4-tetrahydroisoquinolin-3-yl)ethyl)-2-(trifluoromethoxy)benzamide] gave an IC50 of 45800 nM.

With `COc1ccccc1C(=O)NC[C@@H](O)[C@@H]1Cc2ccccc2CN1` [Example 7, N-((R)-2-Hydroxy-2-((S)-1,2,3,4-tetrahydroisoquinolin-3-yl)ethyl)-2-methoxybenzamide], the IC50 came out at 20000 nM.

`O=C(NC[C@@H](O)[C@@H]1Cc2ccccc2CN1)c1ccccc1F` [Example 9, 2-Fluoro-N-((R)-2-hydroxy-2-((S)-1,2,3,4-tetrahydroisoquinolin-3-yl)ethyl)benzamide] returned an IC50 of 12500 nM.

As to `Cc1ccccc1C(=O)NC[C@@H](O)[C@@H]1Cc2ccccc2CN1` [Example 10, N-((R)-2-Hydroxy-2-((S)-1,2,3,4-tetrahydroisoquinolin-3-yl)ethyl)-2-methylbenzamide], the IC50 turned out to be 22500 nM.

Molecule `O=C(NC[C@@H](O)[C@@H]1Cc2ccccc2CN1)c1cccc(-c2ccnnc2)c1` [Example 12, N-((R)-2-Hydroxy-2-((S)-1,2,3,4-tetrahydroisoquinolin-3-yl)ethyl)-3-(pyridazin-4-yl)benzamide] had an IC50 of 663 nM.

Molecule `O=C(NC[C@@H](O)[C@@H]1Cc2ccccc2CN1)c1ccc(-c2nnc(N3CCOCC3)o2)cc1` [Example 13, N-((R)-2-Hydroxy-2-((S)-1,2,3,4-tetrahydroisoquinolin-3-yl)ethyl)-4-(5-morpholino-1,3,4-oxadiazol-2-yl)benzamide] returned an IC50 of 551 nM.

For the molecule `O=C(NC[C@@H](O)[C@@H]1Cc2ccccc2CN1)c1coc(-c2ccccc2)n1` [Example 14, N-((R)-2-Hydroxy-2-((S)-1,2,3,4-tetrahydroisoquinolin-3-yl)ethyl)-2-phenyloxazole-4-carboxamide], the IC50 stood at 2330 nM.

`O=C(NC[C@@H](O)[C@@H]1Cc2ccccc2CN1)c1csc(-c2ccccc2)n1` [Example 16, N-((R)-2-Hydroxy-2-((S)-1,2,3,4-tetrahydroisoquinolin-3-yl)ethyl)-2-phenylthiazole-4-carboxamide] yielded an IC50 of 662 nM. This IC50 lies about 3.5-fold lower than the previous one.

In turn, `O=C(NC[C@@H](O)[C@@H]1Cc2ccccc2CN1)c1cnn(-c2cccnc2)c1` [Example 17, N-((R)-2-Hydroxy-2-((S)-1,2,3,4-tetrahydroisoquinolin-3-yl)ethyl)-1-(pyridin-3-yl)-1H-pyrazole-4-carboxamide dihydrochloride salt] had an IC50 of 1270 nM.

`O=C(NC[C@@H](O)[C@@H]1Cc2ccccc2CN1)c1cccc(-c2cncnc2)c1` [Example 18, N-((R)-2-Hydroxy-2-((S)-1,2,3,4-tetrahydroisoquinolin-3-yl)ethyl)-3-(pyrimidin-5-yl)benzamide] came in with an IC50 of 2100 nM.

`CC(=O)N1CCC(N(C)C(=O)c2ccc(C(=O)NC[C@@H](O)[C@@H]3Cc4ccccc4CN3)cc2)CC1` [Example 19, N^1-(1-Acetylpiperidin-4-yl)-N^4-((R)-2-hydroxy-2-((S)-1,2,3,4-tetrahydroisoquinolin-3-yl)ethyl)-N^1 methylterephthalamide] had an IC50 of 912 nM. This IC50 lies about 2.3-fold lower than the previous one.

The molecule `O=C(NC[C@@H](O)[C@@H]1Cc2ccccc2CN1)c1cccc(C(F)F)c1` [Example 22, 3-(Difluoromethyl)-N-((R)-2-hydroxy-2-((S)-1,2,3,4-tetrahydroisoquinolin-3-yl)ethyl)benzamide] displayed an IC50 of 2150 nM. Compared with the last molecule, the IC50 is about 2.4-fold higher.

With `O=C(NC[C@@H](O)[C@@H]1Cc2ccccc2CN1)c1ccccc1C(F)F` [Example 23, 2-(Difluoromethyl)-N-((R)-2-hydroxy-2-((S)-1,2,3,4-tetrahydroisoquinolin-3-yl)ethyl)benzamide], the IC50 came to 5140 nM.

Consider `O=C(NC[C@@H](O)[C@@H]1Cc2ccccc2CN1)c1cccc(C(=O)N2CCOCC2)c1` [Example 24, N-((R)-2-Hydroxy-2-((S)-1,2,3,4-tetrahydroisoquinolin-3-yl)ethyl)-3-(morpholine-4-carbonyl)benzamide], for which the IC50 was 3690 nM.

Regarding `Cc1nnc(-c2ccc(C(=O)NC[C@@H](O)[C@@H]3Cc4ccccc4CN3)cc2)o1` [Example 25, N-((R)-2-Hydroxy-2-((S)-1,2,3,4-tetrahydroisoquinolin-3-yl)ethyl)-4-(5-methyl-1,3,4-oxadiazol-2-yl)benzamide], it took 1700 nM to reach half-maximal inhibition (IC50).

Molecule `O=C(NC[C@@H](O)[C@@H]1Cc2ccccc2CN1)c1ccc(C(=O)N2CCOCC2)cn1` [Example 29, N-((R)-2-Hydroxy-2-((S)-1,2,3,4-tetrahydroisoquinolin-3-yl)ethyl)-5-(morpholine-4-carbonyl)picolinamide dihydrochloride salt] displayed an IC50 of 535 nM.

Molecule `O=C(NC[C@@H](O)[C@@H]1Cc2ccccc2CN1)c1ccc(C(=O)N2CCC(O)(C(F)F)CC2)cc1` [Example 30, 4-(4-(Difluoromethyl)-4-hydroxypiperidine-1-carbonyl)-N-((R)-2-hydroxy-2-((S)-1,2,3,4-tetrahydroisoquinolin-3-yl)ethyl)benzamide] showed an IC50 of 139 nM. Compared with the last molecule, the IC50 is about 3.8-fold lower.

Turning to `O=C(NCC1CCOCC1)c1ccc(C(=O)NC[C@@H](O)[C@@H]2Cc3ccccc3CN2)cc1` [Example 31, N^1-((R)-2-Hydroxy-2-((S)-1,2,3,4-tetrahydroisoquinolin-3-yl)ethyl)-N^4-((tetrahydro-2H-pyran-4-yl)methyl)terephthalamide], half-maximal inhibition (IC50) was put at 204 nM.

Take `O=C(NC[C@@H](O)[C@@H]1Cc2ccccc2CN1)c1ccc(C(=O)N2CCC(CO)CC2)cc1` [Example 32, N-((R)-2-Hydroxy-2-((S)-1,2,3,4-tetrahydroisoquinolin-3-yl)ethyl)-4-(4-(hydroxymethyl)piperidine-1-carbonyl)benzamide]: the IC50 stood at 511 nM.

The molecule `CCS(=O)(=O)N1CCN(C(=O)c2ccc(C(=O)NC[C@@H](O)[C@@H]3Cc4ccccc4CN3)cc2)CC1` [Example 33, 4-(4-(Ethylsulfonyl)piperazine-1-carbonyl)-N-((R)-2-hydroxy-2-((S)-1,2,3,4-tetrahydroisoquinolin-3-yl)ethyl)benzamide] yielded an IC50 of 305 nM.

For the molecule `CS(=O)(=O)N1CCC(NC(=O)c2ccc(C(=O)NC[C@@H](O)[C@@H]3Cc4ccccc4CN3)cc2)CC1` [Example 34, N^1-((R)-2-Hydroxy-2-((S)-1,2,3,4-tetrahydroisoquinolin-3-yl)ethyl)-N^4-(1-(methylsulfonyl)piperidin-4-yl)terephthalamide hydrochloride], the IC50 was found to be 1680 nM. This IC50 is about 5.5-fold higher than that of the molecule before.

On to `CC(=O)N1CCC(NC(=O)c2ccc(C(=O)NC[C@@H](O)[C@@H]3Cc4ccccc4CN3)cc2)CC1` [Example 35, N^1-(1-Acetylpiperidin-4-yl)-N^4-((R)-2-hydroxy-2-((S)-1,2,3,4-tetrahydroisoquinolin-3-yl)ethyl)terephthalamide], for which the IC50 is 152 nM. Compared with the last molecule, the IC50 is about 11-fold lower.

In turn, `O=C(NC[C@@H](O)[C@@H]1Cc2ccccc2CN1)c1ccc(C(=O)N2C[C@H]3COC[C@H]3C2)cc1` [Example 36, 4-(cis-Hexahydro-1H-furo[3,4-c]pyrrole-5-carbonyl)-N-((R)-2-hydroxy-2-((S)-1,2,3,4-tetrahydroisoquinolin-3-yl)ethyl)benzamide] had an IC50 of 148 nM.

With `COC1CC2CCC(C1)N2C(=O)c1ccc(C(=O)NC[C@@H](O)[C@@H]2Cc3ccccc3CN2)cc1` (stereo partly drawn) [Example 38, N-((R)-2-Hydroxy-2-((S)-1,2,3,4-tetrahydroisoquinolin-3-yl)ethyl)-4-(3-methoxy-8-azabicyclo[3.2.1]octane-8-carbonyl)benzamide], it took 599 nM to reach half-maximal inhibition (IC50).

With `CC(C)N(C)C(=O)c1ccc(C(=O)NC[C@@H](O)[C@@H]2Cc3ccccc3CN2)cc1` [Example 39, N^1-((R)-2-Hydroxy-2-((S)-1,2,3,4-tetrahydroisoquinolin-3-yl)ethyl)-N^4-isopropyl-N^4-methylterephthalamide], the half-maximal inhibitory concentration (IC50) is 846 nM. The IC50 values of the last two molecules are within 1.5-fold of each other.

Molecule `O=C(NC[C@@H](O)[C@@H]1Cc2ccccc2CN1)c1ccc(C(=O)N2CCCOCC2)cc1` [Example 40, N-((R)-2-Hydroxy-2-((S)-1,2,3,4-tetrahydroisoquinolin-3-yl)ethyl)-4-(1,4-oxazepane-4-carbonyl)benzamide] registered an IC50 of 705 nM.
